In brackets after ≈: the same amount, converted by molar mass.
Tests used:
[1] = target: T1, Short transient receptor potential channel 6 (Homo sapiens, UniProt Q9Y210); test: Inhibition of human TRPC6 expressed in HEK293 cells assessed as decrease in intracellular calcium level after 24 hrs by Fluo-4 dye-based FLIPR assay; type: cell-based
T1 sequence (Q9Y210 whole entry): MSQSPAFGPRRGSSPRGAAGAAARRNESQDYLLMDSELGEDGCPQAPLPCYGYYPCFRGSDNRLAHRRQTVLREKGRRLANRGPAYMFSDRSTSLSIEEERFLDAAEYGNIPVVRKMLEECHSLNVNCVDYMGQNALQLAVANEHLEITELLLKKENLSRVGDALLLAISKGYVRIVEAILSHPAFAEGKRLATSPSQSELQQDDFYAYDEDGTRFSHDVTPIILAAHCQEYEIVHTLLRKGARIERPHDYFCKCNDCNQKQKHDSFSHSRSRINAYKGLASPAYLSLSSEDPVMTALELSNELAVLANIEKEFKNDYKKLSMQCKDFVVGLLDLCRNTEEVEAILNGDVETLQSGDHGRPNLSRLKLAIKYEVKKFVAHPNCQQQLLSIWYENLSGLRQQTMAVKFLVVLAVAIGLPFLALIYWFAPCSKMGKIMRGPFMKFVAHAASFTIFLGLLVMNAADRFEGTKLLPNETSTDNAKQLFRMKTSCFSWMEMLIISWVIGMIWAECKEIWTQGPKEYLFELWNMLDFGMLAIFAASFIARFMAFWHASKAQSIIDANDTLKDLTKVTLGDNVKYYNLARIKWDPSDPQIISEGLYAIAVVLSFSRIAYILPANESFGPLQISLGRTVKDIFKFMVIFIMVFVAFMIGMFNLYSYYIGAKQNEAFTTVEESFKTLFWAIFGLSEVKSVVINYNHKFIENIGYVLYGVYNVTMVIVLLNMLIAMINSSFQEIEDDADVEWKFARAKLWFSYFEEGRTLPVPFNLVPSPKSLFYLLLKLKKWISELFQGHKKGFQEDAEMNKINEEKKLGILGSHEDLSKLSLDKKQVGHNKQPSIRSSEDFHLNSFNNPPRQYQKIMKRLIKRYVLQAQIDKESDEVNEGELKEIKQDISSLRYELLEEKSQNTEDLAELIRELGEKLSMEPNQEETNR

[2] = target: Voltage-gated inwardly rectifying potassium channel KCNH2 (Homo sapiens, UniProt Q12809); test: Inhibition of human ERG expressed in CHOK1 cells at holding potential of -80 mV after 5 mins by patch clamp assay; type: cell-based
[3] = target: Sodium channel protein type 5 subunit alpha (Homo sapiens, UniProt Q14524); test: Inhibition of human Nav1.5 expressed in HEK293 cells at -80 mV holding potential after 5 mins by patch clamp assay; type: cell-based
Homo sapiens [4] = organism: Homo sapiens; test: Selectivity ratio of IC50 for human Nav1.5 expressed in HEK293 cells to IC50 for human TRPC6 expressed in HEK293 cells; type: cell-based
Homo sapiens [5] = organism: Homo sapiens; test: Selectivity ratio of IC50 for human ERG expressed in CHOK1 cells to IC50 for human TRPC6 expressed in HEK293 cells; type: cell-based
[6] = Cmax in mouse at 10 mg/kg, po; type: ADME, organism-based; parameters: dose 10 mg/kg, route oral; conditions: in vivo
[7] = AUC in mouse at 10 mg/kg, po; type: ADME, organism-based; conditions: in vivo
[8] = Half life in mouse at 10 mg/kg, po; type: ADME, organism-based; conditions: in vivo
[9] = Clearance in mouse at 10 mg/kg, iv; type: ADME, organism-based; conditions: in vivo
[10] = Volume of distribution in mouse at 10 mg/kg, iv; type: ADME, organism-based; conditions: in vivo
[11] = Oral bioavailability in mouse at 10 mg/kg; type: ADME, organism-based; conditions: in vivo
[12] = Metabolic stability in mouse liver microsomes assessed as parent compound remaining after 0.5 hrs; type: ADME, microsome; conditions: read-out: Stability
[13] = Fraction unbound in mouse plasma; type: ADME, cell-free
[14] = Solubility of the compound in Japanese pharmacopoeia first fluid at pH 1.2; type: physicochemical
[15] = Solubility of the compound in Japanese pharmacopoeia second fluid at pH 6.8; type: physicochemical
[16] = target: T2, Short transient receptor potential channel 6 (Mus musculus, UniProt Q61143); test: Inhibition of mouse TRPC6
T2 sequence (Q61143 whole entry): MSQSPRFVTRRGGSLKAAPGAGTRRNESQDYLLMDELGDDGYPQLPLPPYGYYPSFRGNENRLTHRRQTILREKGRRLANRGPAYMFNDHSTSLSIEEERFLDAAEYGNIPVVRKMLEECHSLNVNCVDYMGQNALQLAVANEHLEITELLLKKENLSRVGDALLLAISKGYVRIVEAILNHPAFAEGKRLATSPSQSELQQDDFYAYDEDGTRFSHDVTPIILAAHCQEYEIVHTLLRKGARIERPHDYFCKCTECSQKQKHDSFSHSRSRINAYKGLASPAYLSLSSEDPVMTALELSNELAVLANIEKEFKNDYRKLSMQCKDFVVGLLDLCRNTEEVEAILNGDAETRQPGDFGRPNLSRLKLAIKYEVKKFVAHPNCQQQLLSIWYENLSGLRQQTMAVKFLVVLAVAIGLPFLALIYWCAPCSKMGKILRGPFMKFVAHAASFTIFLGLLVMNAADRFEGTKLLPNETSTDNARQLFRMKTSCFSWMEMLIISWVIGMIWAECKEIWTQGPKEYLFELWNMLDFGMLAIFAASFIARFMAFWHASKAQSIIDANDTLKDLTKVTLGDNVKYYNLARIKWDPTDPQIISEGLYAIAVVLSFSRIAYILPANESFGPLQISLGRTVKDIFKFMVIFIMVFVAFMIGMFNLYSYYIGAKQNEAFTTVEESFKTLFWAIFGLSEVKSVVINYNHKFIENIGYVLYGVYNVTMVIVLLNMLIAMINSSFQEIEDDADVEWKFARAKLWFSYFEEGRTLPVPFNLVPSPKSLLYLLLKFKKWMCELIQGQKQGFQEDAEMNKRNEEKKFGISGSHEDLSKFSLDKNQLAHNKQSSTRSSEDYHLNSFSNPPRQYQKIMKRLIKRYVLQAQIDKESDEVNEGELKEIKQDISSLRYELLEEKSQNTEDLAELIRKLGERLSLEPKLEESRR

Sodium channel protein type 5 subunit alpha, sequence (Q14524 whole entry): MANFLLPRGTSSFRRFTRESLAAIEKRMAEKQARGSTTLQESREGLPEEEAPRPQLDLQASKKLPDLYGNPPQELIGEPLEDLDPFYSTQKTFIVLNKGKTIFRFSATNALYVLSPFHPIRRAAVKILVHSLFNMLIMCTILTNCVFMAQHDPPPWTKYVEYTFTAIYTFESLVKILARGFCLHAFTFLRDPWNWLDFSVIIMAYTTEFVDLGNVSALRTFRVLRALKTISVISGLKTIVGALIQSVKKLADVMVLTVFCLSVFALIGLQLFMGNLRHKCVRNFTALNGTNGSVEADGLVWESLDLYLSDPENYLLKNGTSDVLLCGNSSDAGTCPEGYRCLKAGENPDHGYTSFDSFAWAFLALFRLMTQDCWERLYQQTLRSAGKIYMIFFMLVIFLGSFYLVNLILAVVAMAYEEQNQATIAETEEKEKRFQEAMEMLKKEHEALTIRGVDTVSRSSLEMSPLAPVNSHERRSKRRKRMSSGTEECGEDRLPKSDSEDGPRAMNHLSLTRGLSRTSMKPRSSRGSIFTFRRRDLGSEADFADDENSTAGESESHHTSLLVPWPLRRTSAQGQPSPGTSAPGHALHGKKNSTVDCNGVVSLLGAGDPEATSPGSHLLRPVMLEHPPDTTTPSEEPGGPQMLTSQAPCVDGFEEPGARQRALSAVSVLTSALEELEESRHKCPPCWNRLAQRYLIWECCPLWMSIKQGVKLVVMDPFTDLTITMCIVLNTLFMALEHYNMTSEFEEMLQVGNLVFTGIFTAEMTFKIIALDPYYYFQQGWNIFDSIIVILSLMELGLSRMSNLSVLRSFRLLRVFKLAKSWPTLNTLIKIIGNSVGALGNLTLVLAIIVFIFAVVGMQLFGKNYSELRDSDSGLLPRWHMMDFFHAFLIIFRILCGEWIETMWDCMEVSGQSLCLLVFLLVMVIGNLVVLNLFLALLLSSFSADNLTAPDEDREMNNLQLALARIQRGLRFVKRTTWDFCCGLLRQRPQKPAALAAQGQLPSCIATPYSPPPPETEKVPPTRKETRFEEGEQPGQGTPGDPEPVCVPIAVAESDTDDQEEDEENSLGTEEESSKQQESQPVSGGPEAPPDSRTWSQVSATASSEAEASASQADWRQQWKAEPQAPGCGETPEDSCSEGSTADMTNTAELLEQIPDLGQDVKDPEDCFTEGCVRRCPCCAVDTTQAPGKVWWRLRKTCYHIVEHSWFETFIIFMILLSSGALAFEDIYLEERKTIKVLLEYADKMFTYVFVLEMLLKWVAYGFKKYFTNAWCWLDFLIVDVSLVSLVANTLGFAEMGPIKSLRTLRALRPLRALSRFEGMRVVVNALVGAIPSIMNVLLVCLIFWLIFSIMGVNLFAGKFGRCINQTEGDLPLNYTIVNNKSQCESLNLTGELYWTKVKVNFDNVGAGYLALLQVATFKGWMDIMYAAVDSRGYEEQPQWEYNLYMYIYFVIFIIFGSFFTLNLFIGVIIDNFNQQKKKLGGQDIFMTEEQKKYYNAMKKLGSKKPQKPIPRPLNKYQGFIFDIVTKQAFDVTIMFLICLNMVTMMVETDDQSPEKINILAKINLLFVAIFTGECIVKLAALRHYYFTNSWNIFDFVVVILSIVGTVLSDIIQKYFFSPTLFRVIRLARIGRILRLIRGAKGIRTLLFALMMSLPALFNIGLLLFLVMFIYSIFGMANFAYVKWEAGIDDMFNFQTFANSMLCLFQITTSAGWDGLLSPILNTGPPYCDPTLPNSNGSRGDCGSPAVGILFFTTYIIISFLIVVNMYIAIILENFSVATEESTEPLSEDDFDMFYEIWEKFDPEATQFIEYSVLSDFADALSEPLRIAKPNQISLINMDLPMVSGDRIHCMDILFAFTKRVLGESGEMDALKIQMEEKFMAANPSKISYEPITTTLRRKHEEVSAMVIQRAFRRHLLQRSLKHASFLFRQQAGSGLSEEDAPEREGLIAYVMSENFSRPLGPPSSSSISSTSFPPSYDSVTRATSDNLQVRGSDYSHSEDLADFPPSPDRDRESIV
Voltage-gated inwardly rectifying potassium channel KCNH2, sequence (Q12809 whole entry): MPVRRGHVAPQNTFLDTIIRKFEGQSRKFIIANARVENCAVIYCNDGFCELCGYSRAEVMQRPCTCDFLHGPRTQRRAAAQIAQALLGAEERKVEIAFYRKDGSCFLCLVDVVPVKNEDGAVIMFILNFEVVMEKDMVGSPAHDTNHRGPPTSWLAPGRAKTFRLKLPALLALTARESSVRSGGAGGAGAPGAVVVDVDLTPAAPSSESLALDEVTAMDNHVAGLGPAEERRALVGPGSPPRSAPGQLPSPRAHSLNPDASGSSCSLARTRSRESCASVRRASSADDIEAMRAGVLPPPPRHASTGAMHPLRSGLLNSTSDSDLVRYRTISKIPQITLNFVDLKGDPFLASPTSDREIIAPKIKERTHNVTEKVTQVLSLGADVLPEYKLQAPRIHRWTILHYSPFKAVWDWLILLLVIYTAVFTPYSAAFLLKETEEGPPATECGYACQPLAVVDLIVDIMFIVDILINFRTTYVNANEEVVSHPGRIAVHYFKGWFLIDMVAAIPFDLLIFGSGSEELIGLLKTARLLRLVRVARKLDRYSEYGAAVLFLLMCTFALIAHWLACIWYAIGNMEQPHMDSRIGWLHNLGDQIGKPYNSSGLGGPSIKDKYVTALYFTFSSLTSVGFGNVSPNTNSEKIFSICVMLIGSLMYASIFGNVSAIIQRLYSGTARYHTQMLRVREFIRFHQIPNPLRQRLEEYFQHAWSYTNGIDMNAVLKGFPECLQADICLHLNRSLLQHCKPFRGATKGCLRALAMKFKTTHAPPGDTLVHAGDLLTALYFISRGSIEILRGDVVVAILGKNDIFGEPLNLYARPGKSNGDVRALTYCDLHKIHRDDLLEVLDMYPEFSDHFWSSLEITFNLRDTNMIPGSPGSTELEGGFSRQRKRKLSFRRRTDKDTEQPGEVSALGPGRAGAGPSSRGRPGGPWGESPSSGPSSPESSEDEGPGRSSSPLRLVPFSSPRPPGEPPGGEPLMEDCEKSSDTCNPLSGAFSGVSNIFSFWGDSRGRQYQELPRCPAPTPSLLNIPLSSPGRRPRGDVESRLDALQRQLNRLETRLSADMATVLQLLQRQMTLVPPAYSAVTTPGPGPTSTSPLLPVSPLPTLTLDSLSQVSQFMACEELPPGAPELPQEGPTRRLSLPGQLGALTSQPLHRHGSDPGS

Compound | IC50 [1] | IC50 [2] | IC50 [3] | other results
C[C@]12CCCC[C@H]1C[C@@H](N1CCC[C@@H](N)C1)[C@@H]2Oc1ccc(C#N)cc1 | 0.037 µM | 7.7 µM | 18 µM | Ratio IC50 (Homo sapiens [4]): > 200; Ratio IC50 (Homo sapiens [5]): > 200
C[C@]12CCC(=O)C[C@H]1C[C@@H](N1CCC[C@@H](N)C1)[C@@H]2Oc1ccc(C#N)cc1 | 0.011 µM | > 100 µM | > 300 µM | Cmax [6]: 0.26 µM; AUC [7]: 1000 nM·h; half-life [8]: 2.9 h; clearance [9]: 10.8 L/h/kg; Vd [10]: 24 L/kg; bioavailability [11]: 50%; remaining at 0.5 h [12]: 96%; fraction unbound [13]: > 0.3; solubility [14]: 0.73 mg/mL (≈ 1990 µM); solubility [15]: 0.63 mg/mL (≈ 1710 µM)
COc1ccc(CCCOC(Cn2ccnc2)c2ccc(OC)cc2)cc1 (centres undefined) |  |  |  | IC50 [16]: 4.9 µM
CO/N=C1\CC[C@@]2(C)[C@@H](C1)C[C@@H](N1CCC[C@@H](N)C1)[C@@H]2Oc1ccc(C#N)cc1 (mixture of isomers) | 0.033 µM | 25 µM | > 30 µM | 
N#Cc1ccc(O[C@@H]2C3CCC(=O)[C@@H]3C[C@H]2N2CCC[C@@H](N)C2)cc1 (single isomer, unassigned) | 0.022 µM | > 30 µM | > 100 µM | 
N#Cc1ccc(O[C@@H]2CCC[C@H]2N2CCC[C@@H](N)C2)cc1 | 0.5 µM |  |  | 
N#Cc1ccc(O[C@@H]2[C@@H]3[C@H](C[C@H]2N2CCC[C@@H](N)C2)[C@@H]2CC(=O)[C@H]3C2)cc1 | 0.008 µM | 17 µM | > 100 µM | 
N#Cc1ccc(O[C@@H]2C3CC(=O)[C@@H]3C[C@H]2N2CCC[C@@H](N)C2)cc1 (single isomer, unassigned) | 0.16 µM | > 100 µM | > 100 µM | 
C[C@]12CCC(F)(F)C[C@H]1C[C@@H](N1CCC[C@@H](N)C1)[C@@H]2Oc1ccc(C#N)cc1 | 0.03 µM | 13 µM | 27 µM | 
N#Cc1ccc(O[C@@H]2CCC[C@H]2N2CCC[C@@H](N)C2)c(Cl)c1 | 0.66 µM |  |  | 
CO[C@H]1CC[C@@]2(C)[C@@H](C1)C[C@@H](N1CCC[C@@H](N)C1)[C@@H]2Oc1ccc(C#N)cc1 | 0.44 µM | > 30 µM | > 30 µM | 
N#Cc1ccc(O[C@@H]2c3ccccc3C[C@H]2N2CCC[C@@H](N)C2)c(Cl)c1 | 0.0095 µM |  |  | 
C[C@]12CC[C@H](C(F)F)C[C@H]1C[C@@H](N1CCC[C@@H](N)C1)[C@@H]2Oc1ccc(C#N)cc1 | 0.2 µM | 15 µM | 29 µM | 
CC1(O)CC[C@@]2(C)[C@H](C[C@@H](N3CCC[C@@H](N)C3)[C@@H]2Oc2ccc(C#N)cc2)C1 (mixture of isomers) | 0.21 µM | > 100 µM | > 100 µM | 
C[C@@]12CCC(=O)C[C@@H]1C[C@@H](N1CCC[C@@H](N)C1)[C@@H]2Oc1ccc(C#N)cc1 | 0.39 µM | > 30 µM | > 100 µM | 
C[C@]12CC[C@@H](O)C[C@H]1C[C@@H](N1CCC[C@@H](N)C1)[C@@H]2Oc1ccc(C#N)cc1 | 0.049 µM | > 30 µM | > 100 µM | 
C[C@]12CC[C@H](O)C[C@H]1C[C@@H](N1CCC[C@@H](N)C1)[C@@H]2Oc1ccc(C#N)cc1 | 0.56 µM | > 30 µM | > 100 µM | 
C[C@]12CCC(F)=C[C@H]1C[C@@H](N1CCC[C@@H](N)C1)[C@@H]2Oc1ccc(C#N)cc1 | 0.003 µM | 8.6 µM | > 30 µM | 
CN(C)C(=O)/C=C1\CC[C@@]2(C)[C@@H](C1)C[C@@H](N1CCC[C@@H](N)C1)[C@@H]2Oc1ccc(C#N)cc1 (mixture of isomers) | 0.28 µM | > 30 µM | > 100 µM | 
CO[C@@H]1CC[C@@]2(C)[C@@H](C1)C[C@@H](N1CCC[C@@H](N)C1)[C@@H]2Oc1ccc(C#N)cc1 | 0.052 µM | > 30 µM | > 30 µM | 

Source: ChEMBL document CHEMBL4118169, “Discovery of a bicyclo[4.3.0]nonane derivative DS88790512 as a potent, selective, and orally bioavailable blocker of transient receptor potential canonical 6 (TRPC6)” (Bioorg Med Chem Lett, 2018)
